# Results from patent US20230135635A1, “INHIBITORS OF ULK1/2 AND METHODS OF USING SAME” (SALK INSTITUTE FOR BIOLOGICAL STUDIES, priority 2020, published 2023).
# Biological target: T1, recombinant human ULK1 protein (1-649) (Homo sapiens, UniProt O75385)
# T1 construct: recombinant human ULK1 protein (1-649, SignalChem #U01-11G); purchased SignalChem U01-11G
# T1 sequence (O75385 1-649): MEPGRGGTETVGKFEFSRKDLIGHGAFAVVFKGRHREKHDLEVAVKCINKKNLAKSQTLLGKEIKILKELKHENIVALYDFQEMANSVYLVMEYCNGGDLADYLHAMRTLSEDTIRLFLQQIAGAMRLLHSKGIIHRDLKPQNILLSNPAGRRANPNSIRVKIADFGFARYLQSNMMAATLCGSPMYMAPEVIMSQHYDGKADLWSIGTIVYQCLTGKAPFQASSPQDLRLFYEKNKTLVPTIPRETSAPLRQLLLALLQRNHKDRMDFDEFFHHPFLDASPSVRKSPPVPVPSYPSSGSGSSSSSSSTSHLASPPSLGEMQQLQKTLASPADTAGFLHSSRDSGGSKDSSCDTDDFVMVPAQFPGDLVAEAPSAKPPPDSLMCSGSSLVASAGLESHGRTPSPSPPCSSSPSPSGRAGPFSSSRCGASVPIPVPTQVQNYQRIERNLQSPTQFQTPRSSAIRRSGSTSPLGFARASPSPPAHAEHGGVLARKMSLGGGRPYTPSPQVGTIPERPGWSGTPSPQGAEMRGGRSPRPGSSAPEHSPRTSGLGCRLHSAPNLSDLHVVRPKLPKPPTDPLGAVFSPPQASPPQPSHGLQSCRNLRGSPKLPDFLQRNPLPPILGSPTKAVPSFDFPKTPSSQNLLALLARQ
# Test: ULK1 inhibition assay (ADP Glo)
# Assay type: biochemical
# Conditions: Table 1; 25 uM ATP, MBP substrate, one hour
# Outline: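 Recombinant ULK1 (2 ug/mL) phosphorylated myelin basic protein (80 ug/mL) at 25 uM ATP; ADP formed was detected by ADP-Glo after 1 h. Compounds ran in triplicate, 16-dose 3-fold serial dilution from 30 uM, to give IC50.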
row,Compound,IC50
1,CC(C)(O)CN1CCc2cc(Nc3ncc(C(F)(F)F)c(NC4CC4)n3)ccc2C1 [Compound A18],< 1 nM
2,"CNC(=O)c1ccccc1Nc1nc(Nc2ccc3c(c2)CN(C(=O)CCN)CC3)ncc1Br [Compound A155, 2-{2-[2-(3-Amino-propionyl)-1,2,3,4-tetrahydro-isoquinolin-7-ylamino]-5-bromo-pyrimidin-4-ylamino}-N-methyl-benzamide]",> 10 nM
3,FC(F)(F)c1cnc(Nc2ccc3c(c2)CN(CC2OCCO2)CC3)nc1NC1CC1 [Compound A79],1 to 10 nM
4,CN1CCC(N2CCc3cc(Nc4ncc(C(F)(F)F)c(NC5CC5)n4)ccc3C2)C1 (stereo not shown) [Compound A114],< 1 nM
5,CC(=O)CN1CCc2cc(Nc3ncc(C(F)(F)F)c(NC4CC4)n3)ccc2C1 [Compound A69],< 1 nM
6,"CNC(=O)c1ccccc1Nc1nc(Nc2ccc3c(c2)CCN(Cc2ccccn2)C3)ncc1Br [Compound A144, 2-[5-Bromo-2-(2-pyridin-2-ylmethyl-1,2,3,4-tetrahydro-isoquinolin-6-ylamino)-pyrimidin-4-ylamino]-N-methyl-benzamide]",> 10 nM
7,"CNC(=O)c1ccccc1Nc1nc(Nc2ccc3c(c2)CCN(C(=O)CN)C3)ncc1Br [Compound A132, 2-{2-[2-(2-Amino-acetyl)-1,2,3,4-tetrahydro-isoquinolin-6-ylamino]-5-bromo-pyrimidin-4-ylamino}-N-methyl-benzamide]",> 10 nM
8,CC(C)(C)OC(=O)N1CCc2ccc(Nc3ncc(C(F)(F)F)c(NC4CC4)n3)cc2C1 [Compound A15],1 to 10 nM
9,NC(=O)CCN1CCc2cc(Nc3ncc(C(F)(F)F)c(NC4CC4)n3)ccc2C1 [Compound A58],< 1 nM
10,N[C@@H](CO)C(=O)N1CCc2ccc(Nc3ncc(C(F)(F)F)c(NC4CC4)n3)cc2C1 [Compound A96],> 10 nM
11,CN1CCc2cc(Nc3ncc(C(F)(F)F)c(NC4CC4)n3)ccc2C1 [Compound A1],< 1 nM
12,CN1CCC(N2CCc3cc(Nc4ncc(C(F)(F)F)c(NC5CC5)n4)ccc3C2)CC1 [Compound A73],< 1 nM
13,FC(F)(F)c1cnc(Nc2ccc3c(c2)CCN(Cc2cncnc2)C3)nc1NC1CC1 [Compound A49],< 1 nM
14,O=C(N1CCOCC1)N1CCc2cc(Nc3ncc(C(F)(F)F)c(NC4CC4)n3)ccc2C1 [Compound A2],1 to 10 nM
15,N[C@@H](CC(=O)O)C(=O)N1CCc2cc(Nc3ncc(C(F)(F)F)c(NC4CC4)n3)ccc2C1 (racemic) [Compound A66],< 1 nM

# Same assay, conditions: Table 2
row,Compound,IC50
1,COc1cc(Nc2ncc(Br)c(Oc3ccccc3C(=O)NCC(F)(F)F)n2)cc(OC)c1OC [Compound B6],100 to 1000 nM
2,COC(=O)c1ccccc1Oc1nc(Nc2ccc(O)cc2)ncc1Br [Compound B36],> 1000 nM
3,COC(=O)c1ccccc1Oc1nc(Nc2ccc3[nH]ncc3c2)ncc1Br [Compound B26],100 to 1000 nM
4,COC(=O)c1ccccc1Oc1nc(Nc2ccc(OC(F)F)cc2)ncc1Br [Compound B25],> 1000 nM
5,COC(=O)c1ccccc1Oc1nc(Nc2cc(OC)c(OC)c(OC)c2)ncc1Br [Compound B2],< 100 nM

# Same assay, conditions: Table 3
row,Compound,IC50
1,OCc1ccccc1Nc1nc(Nc2ccc(OC(F)F)cc2)ncc1Br [Compound C8],5 to 100 nM
2,COc1cc(Nc2ncc(C(F)(F)F)c(Nc3ccccc3CO)n2)cc(OC)c1OC [Compound C3],< 5 nM
3,COc1cc(Oc2ncc(Br)c(Nc3ccccc3CO)n2)cc(OC)c1OC [Compound C10],> 100 nM
4,"CNC(=O)c1ccccc1Nc1nc(Nc2ccc(OC(F)(F)F)cc2)ncc1Br [Compound E19, 2-((5-Bromo-2-((4-(trifluoromethoxy)phenyl)amino)pyrimidin-4-yl)amino)-N-methylbenzamide]",> 100 nM
5,"CNC(=O)c1ccccc1Nc1nc(Nc2ccc(N3CCNCC3)cc2)ncc1Br [Compound E24, 2-((5-Bromo-2-((4-(piperazin-1-yl)phenyl)amino)pyrimidin-4-yl)amino)-N-methylbenzamide]",5 to 100 nM
